Earlier results in patent US20240274252A1, “Dosage Calculator” (Closed Loop Medicine Ltd., priority 2023, published 2024).
“And” between values parts separate entries of the source, which are not always exact repeats. Identical values can stand only once. Like-named read-outs stand apart in the source and are kept apart here. Values belong to the compound of their own block, whether it stands above or below them.

What was measured:
[1] = for time to peak levels: immediate release
[2] = patient population
[3] = model input parameter, FIG. 4A
[4] = not given; remark: listed apart in the source
[5] = not given; remark: listed apart in the source

Change in Drug Level Exposure (AUC) (Amiodarone co-administration): 12% increase
Change in Drug Level Exposure (AUC) (CrCl = 30, relative to median CrCl of 69 in RE-LY): 1.8 fold increase
Change in Drug Level Exposure (AUC) (CrCl = 50, relative to median CrCl of 69 in RE-LY): 1.3 fold increase
decrease in Vd (Hb above 14.3 g · dL^−1): 4 %/1 g · dL^−1
Change in Drug Level Exposure (AUC) (PPIs co-administration): ~13% decrease
Change in Drug Level Exposure (AUC) (Verapamil co-administration): 23% increase
Change in Drug Level Exposure (AUC) (covariate Haemoglobin): no effect on AUC
Change in Drug Level Exposure (AUC) (females compared to men): ~9% increase in females compared to men
effect on Cmax (low weight): will increase Cmax
Change in Drug Level Exposure (AUC) (patients with heart failure): ~7% increase in patients with HF
half-life ([1]; elimination after absorption): 12 to 17 h and 12 to 14 h
acyl glucuronides, mean share of parent drug in the plasma ([1]; equally active metabolites): ~10%
time to peak levels ([1]; after food): 3 to 4 h
time to peak levels ([1]; taken without food): approximately 1 hour
PK linearity ([1]; in vivo): linear
mean half-life ([1]; in vivo): 12 h
share of absorbed drug eliminated into urine ([1]; in vivo): 80%
variability in circulating plasma levels ([1]; inter-subject, from prodrug conversion and low GI absorption): up to 50%
remainder of the drug going into the faeces ([1]; oral): ~90%
time of peak absorption ([1]; oral): ~1 h
fraction of the drug absorbed from the GI tract ([1]; oral, after conversion from prodrug dabigatran etexilate): ~5% and 3-7%
increase in availability ([1]; pellets removed from the capsule): 75%
elimination via the kidney, share of total clearance ([1]; primary route of elimination): 80%
total and peak systemic exposure versus dose ([1]; range 50-400 mg twice daily): dose-proportional
delay of the peak by food ([1]; with food, total absorption not affected): ≤ 2 h
range of trough plasma levels ([2]; 110 mg dose): 25 to 160 ng/mL
range of trough plasma levels ([2]; 150 mg dose): 40 to 220 ng/mL
Ka, first order drug absorption rate constant [3]: 0.754
Q, intercompartmental clearance [3]: 35.5
Vc, central compartment volume [3]: 673
Vp, peripheral compartment volume [3]: 345
increase in maximum concentration, Cmax ([4]; with Quinidine): 56%
increase in total absorption ([4]; with Quinidine): 53%
increase in total exposure ([4]; with ketoconazole): ~1.4 fold
increase in total exposure ([4]; with verapamil, depending on when the drug is taken): 2.4 fold
SMILES: [H]/N=C(/N)c1ccc(NCc2nc3cc(C(=O)N(CCC(=O)O)c4ccccn4)ccc3n2C)cc1 [dabigatran]
Change in Drug Level Exposure (AUC) (Age, per year older compared to 72 yr): 0.41% increase per year older compared to 72 yr
Change in Drug Level Exposure (AUC) (South Asians compared to other ethnicities): ~26% increase in South Asians compared to other
Change in activity: chance of bleeding (coadministration of Asprin, clopidogrel): Coadministration will increase chance of bleeding
Change in Drug Level Exposure (AUC) (covariate Weight): Weight had no effect on AUC but increase in distribution

risk of intracranial bleeds compared with warfarin ([5]; RELY): small reduction
SMILES: CCCCCCOC(=O)NC(=N)c1ccc(NCc2nc3cc(C(=O)N(CCC(=O)OCC)c4ccccn4)ccc3n2C)cc1 [Dabigatran etexilate]
comparison with warfarin ([5]; phase III RELY study, patients with nonvalvular AF): superior to warfarin
